Measured values: US20080305111A1, “Anti-C35 antibodies for treating cancer” (VACCINEX, INC., priority 2006, published 2008)
Like-named read-outs stand apart in the source and are kept apart here.

What was measured:
[1] = system: rabbit anti-human C35 polyclonal antibody; assay: ELISA of rabbit C35 immune serum on plates coated with C35 15-mer peptides; format: binding
[2] = Toxicity of chemotherapy, radioimmunotherapy and combination therapy by weight loss (FIG. 8); design: species or system Swiss nude mice; conditions: Swiss nude, mouse, in vivo, intravenous; together with Leucovorin at 120 mg/kg
[3] = cited from earlier work
Colau.C35 tumor cells = assay: Combination radioimmunotherapy and chemotherapy, second experiment (FIG. 6, Table 6); format: in vivo, Swiss nude mice
Description: Swiss nude mice were grafted with Colau.C35 cells on day 0. Chemotherapy: Cisplatin administered at 2 mg/kg i.v. on days 15 & 18; 5FU/LV administered at 180/120 mg/kg i.v. on day 18.
Cispaltin was administered on days 15 and 18 following tumor graft. […] Tumor growth was followed for up to 10 weeks.

21MT1 tumor cells = assay: C35 surface staining following drug induced apoptosis (flow cytometry); format: cell-based
Description: 24 hours following treatment with 0.5 uM Taxol™, 21MT1 tumor cells were stained with annexin V-FITC, propidium iodide, and with either 100 ng anti-C35 antibody 1F2 (dark line) or isotype control (grey fill) antibody. Both antibodies were directly conjugated to Alexa-647. Histograms were gated on the cells undergoing apoptosis (annexinV positive/PI negative). Antibodies were pre-incubated with PAB buffer (FIG. 3A), 100-fold molar excess recombinant C35 protein (FIG. 3B), or 100-fold molar excess β-galactosidase protein (FIG. 3C).
A line of continuously growing breast tumor cells that express the C35 tumor antigen was either treated with 6 ug/ml mitomycin C or left untreated. After continued in vitro culture for 48 hours to allow apoptosis to develop, cells were harvested, washed and stained with 50 ng of 1F2 monoclonal anti-C35 antibody or a mouse IgG antibody control each conjugated to the fluorescent dye Alexa 647. Following 50 minutes incubation at 25° C., cells were stained with Annexin V and propidium iodide (PI) using a standard commercial kit (Pharmingen). Cells were analyzed for staining with Annexin V, propidium iodide and Alexa 647 by flow cytometry employing standard protocols.

[4] = 14 μg/ml peptide coated plates, 100 ng/ml primary antibody
[5] = 40 μg/ml peptide coated plates, 1 μg/ml primary antibody
[6] = non-toxic dose at indicated schedule (dose of column Dose + RIT)
[7] = literature values, schedule as in table

Compound: RASNGETLEKITNSR [P95]
- Absorbance @ 450-570 nm [1, 4]: 0.062
- Absorbance @ 450-570 nm [1, 5]: 0.462

Compound: GGFPYEKDLIEAIRR [P81]
- Absorbance @ 450-570 nm [1, 4]: 0.032
- Absorbance @ 450-570 nm [1, 5]: 0.204

Compound: GETLEKITNSRPPAV [P99]
- Absorbance @ 450-570 nm [1, 4]: 0.026
- Absorbance @ 450-570 nm [1, 5]: 0.18

Compound: GAFEIEINGQLVFSK [P63]
- Absorbance @ 450-570 nm [1, 4]: 0.079
- Absorbance @ 450-570 nm [1, 5]: 0.557

Compound: O=c1[nH]cc(F)c(=O)[nH]1 [5-FluoroUracil]
- MTD [2]: 180 mg/kg

Compound: SGEPGQTSVAPPPEE [P2]
- Absorbance @ 450-570 nm [1, 4]: 0.108
- Absorbance @ 450-570 nm [1, 5]: 1.227

Compound: PEEVEPGSGVRIVVE [P14]
- Absorbance @ 450-570 nm [1, 4]: 0.127
- Absorbance @ 450-570 nm [1, 5]: 0.972

Compound: VAPPPEEVEPGSGVR [P10]
- Absorbance @ 450-570 nm [1, 4]: 1.736
- Absorbance @ 450-570 nm [1, 5]: 3.407

Compound: NGGFPYEKDLIEAIR [P80]
- Absorbance @ 450-570 nm [1, 4]: 0.018
- Absorbance @ 450-570 nm [1, 5]: 0.1

Compound: EAIRRASNGETLEKI [P91]
- Absorbance @ 450-570 nm [1, 4]: 0.023
- Absorbance @ 450-570 nm [1, 5]: 0.144

Compound: EIEINGQLVFSKLEN [P66]
- Absorbance @ 450-570 nm [1, 4]: 0.028
- Absorbance @ 450-570 nm [1, 5]: 0.182

Compound: GFPYEKDLIEAIRRA [P82]
- Absorbance @ 450-570 nm [1, 4]: 0.02
- Absorbance @ 450-570 nm [1, 5]: 0.18

Compound: SNGETLEKITNSRPP [P97]
- Absorbance @ 450-570 nm [1, 4]: 0.046
- Absorbance @ 450-570 nm [1, 5]: 0.373

Compound: Nc1ccn([C@@H]2O[C@H](CO)[C@@H](O)C2(F)F)c(=O)n1 [Gemcitabine]
- Maximum Tolerated Dose [3, 6]: No toxicity ^5

Compound: EPGQTSVAPPPEEVE [P4]
- Absorbance @ 450-570 nm [1, 4]: 1.254
- Absorbance @ 450-570 nm [1, 5]: 3.282

Compound: RRASNGETLEKITNS [P94]
- Absorbance @ 450-570 nm [1, 4]: 0.061
- Absorbance @ 450-570 nm [1, 5]: 0.526

Compound: PPEEVEPGSGVRIVV [P13]
- Absorbance @ 450-570 nm [1, 4]: 0.385
- Absorbance @ 450-570 nm [1, 5]: 2.522

Compound: EKDLIEAIRRASNGE [P86]
- Absorbance @ 450-570 nm [1, 4]: 0.023
- Absorbance @ 450-570 nm [1, 5]: 0.166

Compound: O=C1[O][Pt]2([NH][C@@H]3CCCC[C@H]3[NH]2)[O]C1=O [Oxaliplatin]
- Maximum Tolerated Dose [3, 7]: 5 mg/kg

Compound: FPYEKDLIEAIRRAS [P83]
- Absorbance @ 450-570 nm [1, 4]: 0.025
- Absorbance @ 450-570 nm [1, 5]: 0.19

Compound: IRRASNGETLEKITN [P93]
- Absorbance @ 450-570 nm [1, 4]: 0.051
- Absorbance @ 450-570 nm [1, 5]: 0.389

Compound: PGQTSVAPPPEEVEP [P5]
- Absorbance @ 450-570 nm [1, 4]: 2.719
- Absorbance @ 450-570 nm [1, 5]: 3.383

Compound: DLIEAIRRASNGETL [P88]
- Absorbance @ 450-570 nm [1, 4]: 0.025
- Absorbance @ 450-570 nm [1, 5]: 0.135

Compound: N.N.[Cl][Pt][Cl] [Cisplatin]
- Maximum Tolerated Dose [3, 7]: 4 mg/kg
- TDD = Tumor doubling delay (Colau.C35 tumor cells; T − C/tumor volume doubling time of untreated): 0.66
- LCK = Log Cell Kill (Colau.C35 tumor cells; TDD/3.32): 0.20
- Colau.C35 tumor growth (FIG. 6) (Colau.C35 tumor cells; cisplatin 2 mg/kg days 15, 18, 5FU/LV 180/120 mg/kg day 18, 300 μCi ^131I-1B3 day 21): some inhibition
- T − C: difference in time for treated and control tumors to reach a given volume (Colau.C35 tumor cells; volume 1200 mm^3): 5 days

Compound: CO[C@@]12[C@H](COC(N)=O)C3=C(C(=O)C(C)=C(N)C3=O)N1C[C@@H]1N[C@@H]12 [mitomycin C]
- C35 surface staining of treated cells undergoing apoptosis (21MT1 tumor cells; 6 ug/ml, 48 hours, PI negative, Annexin V positive cells): clearly differentially stained with anti-C35 antibodies as compared to isotype control antibody

Compound: NGETLEKITNSRPPA [P98]
- Absorbance @ 450-570 nm [1, 4]: 0.035
- Absorbance @ 450-570 nm [1, 5]: 0.213

Compound: IEAIRRASNGETLEK [P90]
- Absorbance @ 450-570 nm [1, 4]: 0.04
- Absorbance @ 450-570 nm [1, 5]: 0.403

Compound: TGAFEIEINGQLVFS [P62]
- Absorbance @ 450-570 nm [1, 4]: 0.023
- Absorbance @ 450-570 nm [1, 5]: 0.107

Compound: AIRRASNGETLEKIT [P92]
- Absorbance @ 450-570 nm [1, 4]: 0.04
- Absorbance @ 450-570 nm [1, 5]: 0.267

Compound: FEIEINGQLVFSKLE [P65]
- Absorbance @ 450-570 nm [1, 4]: 0.043
- Absorbance @ 450-570 nm [1, 5]: 0.269

Compound: TLEKITNSRPPAVIL [P101]
- Absorbance @ 450-570 nm [1, 4]: 0.472
- Absorbance @ 450-570 nm [1, 5]: 2.519

Compound: CC(=O)O[C@H]1C(=O)[C@@]2(C)[C@H]([C@H](OC(=O)c3ccccc3)[C@]3(O)C[C@H](OC(=O)[C@H](O)[C@@H](NC(=O)c4ccccc4)c4ccccc4)C(C)=C1C3(C)C)[C@]1(OC(C)=O)CO[C@@H]1C[C@@H]2O [Taxol, paclitaxel]
- induction of apoptosis and C35 surface exposure (21MT1 tumor cells; 0.5 uM, 24 hours, stained with 1F2): induces apoptosis, resulting in exposure of C35 on the surface of apoptotic tumor cells
- Maximum Tolerated Dose [3, 6]: No toxicity ^2

Compound: PPPEEVEPGSGVRIV [P12]
- Absorbance @ 450-570 nm [1, 4]: 0.836

Compound: TSVAPPPEEVEPGSG [P8]
- Absorbance @ 450-570 nm [1, 4]: 0.059
- Absorbance @ 450-570 nm [1, 5]: 0.394

Compound: ETLEKITNSRPPAVI [P100]
- Absorbance @ 450-570 nm [1, 4]: 0.017
- Absorbance @ 450-570 nm [1, 5]: 0.124

Compound: GQTSVAPPPEEVEPG [P6]
- Absorbance @ 450-570 nm [1, 4]: 2.483
- Absorbance @ 450-570 nm [1, 5]: 3.381

Compound: MSGEPGQTSVAPPPE [P1]
- Absorbance @ 450-570 nm [1, 4]: 0.257

Compound: O=P1(N(CCCl)CCCl)NCCCO1 (centres unmarked) [Cyclophosphamide]
- Maximum Tolerated Dose [3, 6]: No toxicity ^2

Compound: APPPEEVEPGSGVRI [P11]
- Absorbance @ 450-570 nm [1, 4]: 1.526
- Absorbance @ 450-570 nm [1, 5]: 3.317

Compound: SVAPPPEEVEPGSGV [P9]
- Absorbance @ 450-570 nm [1, 4]: 2.31
- Absorbance @ 450-570 nm [1, 5]: 3.367

Compound: GEPGQTSVAPPPEEV [P3]
- Absorbance @ 450-570 nm [1, 4]: 1.458
- Absorbance @ 450-570 nm [1, 5]: 3.349

Compound: LIEAIRRASNGETLE [P89]
- Absorbance @ 450-570 nm [1, 4]: 0.015
- Absorbance @ 450-570 nm [1, 5]: 0.053

Compound: YEKDLIEAIRRASNG [P85]
- Absorbance @ 450-570 nm [1, 4]: 0.024
- Absorbance @ 450-570 nm [1, 5]: 0.179

Compound: PYEKDLIEAIRRASN [P84]
- Absorbance @ 450-570 nm [1, 4]: 0.037
- Absorbance @ 450-570 nm [1, 5]: 0.391

Compound: AFEIEINGQLVFSKL [P64]
- Absorbance @ 450-570 nm [1, 4]: 0.055
- Absorbance @ 450-570 nm [1, 5]: 0.423

Compound: EVEPGSGVRIVVEYA [P16]
- Absorbance @ 450-570 nm [1, 4]: 0.027
- Absorbance @ 450-570 nm [1, 5]: 0.172

Compound: QTSVAPPPEEVEPGS [P7]
- Absorbance @ 450-570 nm [1, 4]: 2.635
- Absorbance @ 450-570 nm [1, 5]: 3.388

Compound: EEVEPGSGVRIVVEY [P15]
- Absorbance @ 450-570 nm [1, 4]: 0.039
- Absorbance @ 450-570 nm [1, 5]: 0.334
